From US5767261A, “Lepidopteran GABA gated chloride channel and nucleic acids encoding subunits thereof” (priority 1995, dated 1998)

Tests used:
[1] = test system: Heliothis virescens cyclodiene resistant chloride channel; assay: Two-electrode voltage clamp recordings of Xenopus oocytes injected with pIVY12 mRNA; assay type: cell-based; conditions: agonized by GABA
Experimental: (§1) Messenger RNA was produced from the cDNA template of pIVY12 described in Example I by in vitro transcription with the Ambion mMESSAGE mMACHINE IN VITRO TRANSCRIPTION KIT™ (Ambion, Inc.) The mRNA was injected into oocytes by the following procedure.
(§2) Frogs were anesthetized in a 2 gram/liter solution of 3-amino benzoic acid ethyl ester for thirty minutes, after which oocytes were surgically removed from the abdominal cavity. Follicles were digested by collagenase treatment under sterile conditions by standard methods. Oocytes were injected with 50 nl of mRNA by glass electrodes.
(§3) Following a 24 to 48 hour incubation, two-electrode voltage clamp recordings were made. Recordings were made using a Dagan TEV200 voltage clamp interfaced with a MacLab4 data acquisition system running the MacLab Chart data acquisition/analysis software. Oocytes were positioned under a dissecting scope under constant perfusion with ND-96 standard saline using a Razel syringe perfusion pump, model A99-FY at 93.9 cc/hr. Glass electrodes (A-M Systems, Inc., 1.5 mm×0.86 mm) were filled with 3M KCl and resistance ([…]) was measured to be between 0.7 and 1.5 mega ohms. Both electrodes were inserted into the oocyte at opposite sides, the resting potential was recorded and the voltage clamp turned on. Oocytes were held at a resting potential between -70 and -50 mV. Control responses of GABA were obtained by stopping the perfusion of saline and perfusing with a known concentration of GABA in ND-96 with 0.1% DMSO. The average of several GABA applications was taken as the maximal chloride current for that particular GABA dose. The effect of 10 micromolar GABA on the lepidopteran GABA gated chloride channel expressed in Xenopus oocytes is depicted in FIG. 4. […] In particular, the Heliothis virescens cyclodiene resistant chloride channel is about ten times less sensitive to block by fipronil than the Drosophila Rdl chloride channel.

[2] = target: T1, Heliothis virescens cyclodiene resistant chloride channel (Heliothis virescens, UniProt O18468); assay: as above; assay type: cell-based; conditions: for gross effect of known agonist / antagonist on the channel: similar assays
T1 construct: in vitro transcribed pIVY12 mRNA injected into Xenopus oocytes, homomeric channel
T1 sequence (O18468 30-496): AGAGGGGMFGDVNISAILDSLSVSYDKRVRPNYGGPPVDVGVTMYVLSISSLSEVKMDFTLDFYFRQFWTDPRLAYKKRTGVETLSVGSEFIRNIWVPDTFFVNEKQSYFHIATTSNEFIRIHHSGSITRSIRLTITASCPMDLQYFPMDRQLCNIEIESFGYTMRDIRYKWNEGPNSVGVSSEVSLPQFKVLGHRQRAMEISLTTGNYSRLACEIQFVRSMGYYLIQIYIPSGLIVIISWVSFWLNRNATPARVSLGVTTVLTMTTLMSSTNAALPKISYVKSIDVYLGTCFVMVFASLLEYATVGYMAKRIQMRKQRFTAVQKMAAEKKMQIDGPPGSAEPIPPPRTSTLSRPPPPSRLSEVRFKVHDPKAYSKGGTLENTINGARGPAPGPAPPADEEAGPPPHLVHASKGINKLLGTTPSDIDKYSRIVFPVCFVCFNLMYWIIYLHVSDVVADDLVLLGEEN
Experimental: as §1, §2, §3

[3] = target: T2, Drosophila Rdl chloride channel (Drosophila melanogaster, UniProt P25123); conditions: 10 micromoles of picrotoxinin; cited from earlier work
T2 sequence (P25123 45-606): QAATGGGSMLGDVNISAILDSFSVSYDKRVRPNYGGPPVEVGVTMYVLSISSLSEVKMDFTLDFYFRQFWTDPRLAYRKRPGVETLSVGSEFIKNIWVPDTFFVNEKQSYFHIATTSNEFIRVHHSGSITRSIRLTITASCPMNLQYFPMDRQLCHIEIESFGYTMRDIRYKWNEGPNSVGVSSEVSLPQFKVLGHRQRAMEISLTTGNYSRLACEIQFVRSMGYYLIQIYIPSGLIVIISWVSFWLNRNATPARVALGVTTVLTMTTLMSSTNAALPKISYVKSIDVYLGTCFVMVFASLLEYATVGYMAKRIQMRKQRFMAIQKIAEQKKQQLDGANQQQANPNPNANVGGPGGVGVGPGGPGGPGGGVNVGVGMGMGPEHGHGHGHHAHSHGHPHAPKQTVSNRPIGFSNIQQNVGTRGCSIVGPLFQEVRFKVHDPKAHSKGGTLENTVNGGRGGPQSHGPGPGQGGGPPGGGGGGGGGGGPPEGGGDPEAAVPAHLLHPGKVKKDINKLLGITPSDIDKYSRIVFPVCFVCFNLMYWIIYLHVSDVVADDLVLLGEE

[4] = target: T3, Heliothis virescens cyclodiene resistant GABA gated chloride channel (Heliothis virescens, UniProt O18468); assay: Whole cell voltage clamp recordings of Sf9 cells infected with recombinant baculovirus Elise13; assay type: cell-based; conditions: 1×10^-3 M GABA, thirty hours post infection, FIG. 3
T3 sequence (O18468 30-496): T1 sequence (O18468 30-496)
Source text: A BamHI/XhoI DNA fragment from plasmid pIVY12 described in Example 1 containing the complete coding sequence of the Heliothis virescens cyclodiene resistant GABA gated chloride channel subunit was cloned into the baculovirus transfer vector pBacPac8 (Clontech). The resulting vector, pIVY13, contains cDNA encoding the Heliothis virescens cyclodiene resistant GABA gated chloride channel subunit under the control of the polyhedrin promoter. The 8.0 kb vector, PIVY13, consists of the Heliothis sequence of pIVY12 cloned into the BamHI/XhoI site of pBacPac8 and is depicted in FIG. 2. Spodoptera frugiperda 9 (Sf9) cells were cotransfected by pIVY13 and wild type Autographa californica nuclear polyhedrosis virus (AcMNPV) using the lipofectin procedure. In transfer vector pIVY13, flanking AcMNPV sequences allowed recombination with the viral DNA, thus resulting in the transfer of the expression cassette of the Heliothis cDNA and the polyhedrin promoter to the polyhedrin locus of the viral DNA. The recombinant virus thus generated was designated Elise13. Viral stocks of Elise13 were generated by standard procedures described by O'Reilly et al. (1992) Baculovirus Expression Vectors, A Laboratory Manual, W. H. Freeman and Company. Sf9 cells were infected with Elise13 at a multiplicity of infection of 5 plaque forming units (PFU) per cell by standard procedures. […]

[5] = target: T4, Heliothis GABA gated chloride channel (Heliothis virescens, UniProt O18468); assay: Whole cell patch clamp recordings of permanently transformed Drosophila SH1 cell lines (pIVY17); assay type: cell-based; conditions: SH1 cells, induced by 10 μM cadmium chloride for 48 hours, FIG. 7
T4 sequence (O18468 30-496): T1 sequence (O18468 30-496)
Source text: To verify that expression of cDNA encoding the GABA gated chloride channel subunit results in production of a functional GABA gated chloride channel, hole cell voltage clamp recordings were made at thirty hours post infection. […] The results presented in this example indicate that expression of DNA encoding a lepidopteran GABA gated chloride channel subunit in Sf9 cells results in a functional GABA gated chloride channel.
Drosophila cell line SH1 was transformed with plasmid pIVY17 using lipofectin obtained from GIBCO-BRL following the manufacturer's instructions. Selection of insect cell transformants was accomplished with hygromycin at a concentration of 200 μg/ml. The Heliothis GABA gated chloride channel expression was induced by 10 μM cadmium chloride added to the growth medium for 48 hours prior to electrophysiological readings. Whole cell voltage patch clamping recordings were performed on a number of cell lines as described in Example III.

C=C(C)[C@@H]1[C@H]2OC(=O)[C@@H]1[C@]1(O)C[C@H]3O[C@]34C(=O)O[C@H]2[C@]14C [picrotoxinin]
reduction of sensitivity to block relative to Drosophila Rdl chloride channel [1]: more than 100 times | block of the Heliothis channel ([2]; 10 micromoles of picrotoxinin): fifty | gross effect of known agonist / antagonist on the channel [2]: exhibited the predicted gross effects | block of Drosophila Rdl [3]: nearly complete block

NCc1cc(=O)[nH]o1 [muscimol]
gross effect of known agonist / antagonist on the channel [2]: exhibited the predicted gross effects

N#Cc1nn(-c2c(Cl)cc(C(F)(F)F)cc2Cl)c(N)c1[S+]([O-])C(F)(F)F (stereo not drawn) [fipronil]
reduction of sensitivity to block relative to Drosophila Rdl chloride channel [1]: about ten

NCCCC(=O)O [GABA, gamma-amino butyric acid]
functional effect on the GABA gated chloride channel ([2]; 10 micromolar GABA, FIG. 4): exhibits the predicted gross functional effect | functional effect on the GABA gated chloride channel (flux of chloride ion) [4]: exhibits the gross functional effect on the GABA gated chloride channel | functional effect on the GABA gated chloride channel (flux of chloride ion) [5]: exhibits the predicted gross functional effect
